Experimental data from ChEMBL document CHEMBL1137681, “Design, synthesis and characterization of N9/N7-substituted 6-aminopurines as VEGF-R and EGF-R inhibitors” (Eur J Med Chem, 2009).
Calls of active or inactive are those of the source.

Tests used:
[1] = biological target: Homeodomain-interacting protein kinase 3 (Homo sapiens) (UniProt Q9H422); test: Inhibition of human HIPK3 at 10 uM
[2] = biological target: MAP kinase-activated protein kinase 2 (Homo sapiens) (UniProt P49137); test: Inhibition of MAPKAP-K2 (delta 1-45) at 10 uM
[3] = biological target: Serine/threonine-protein kinase PAK 4 (Homo sapiens) (UniProt O96013); test: Inhibition of human PAK4 at 10 uM
[4] = biological target: Fibroblast growth factor receptor 1 (Homo sapiens) (UniProt P11362); test: Inhibition of human FGFR1 at 10 uM
[5] = biological target: Ribosomal protein S6 kinase alpha-5 (Homo sapiens) (UniProt O75582); test: Inhibition of MSK1 at 10 uM
Aurora kinase B = Aurora kinase B (Homo sapiens, UniProt Q96GD4); test: Inhibition of Aurora B at 10 uM
[6] = biological target: Inhibitor of nuclear factor kappa-B kinase subunit beta (Homo sapiens) (UniProt O14920); test: Inhibition of IKKb at 10 uM
[7] = biological target: Rho-associated protein kinase 2 (Rattus norvegicus) (UniProt Q62868); test: Inhibition of rat ROCK2 at 10 uM
[8] = biological target: Tyrosine-protein kinase CSK (Homo sapiens) (UniProt P41240); test: Inhibition of CSK at 10 uM
[9] = biological target: Protein kinase C zeta type (Homo sapiens) (UniProt Q05513); test: Inhibition of human PKCzeta at 10 uM
[10] = biological target: Proto-oncogene tyrosine-protein kinase Src (Gallus gallus) (UniProt P00523); test: Inhibition of chick SRC at 10 uM
[11] = biological target: Serine/threonine-protein kinase TBK1 (Homo sapiens) (UniProt Q9UHD2); test: Inhibition of human TBK1 at 10 uM
[12] = biological target: Inhibitor of nuclear factor kappa-B kinase subunit epsilon (Homo sapiens) (UniProt Q14164); test: Inhibition of human IKKe at 10 uM
[13] = biological target: Serine/threonine-protein kinase pim-2 (Homo sapiens) (UniProt Q9P1W9); test: Inhibition of PIM2 at 10 uM
[14] = biological target: Calcium/calmodulin-dependent protein kinase type 1 (Homo sapiens) (UniProt Q14012); test: Inhibition of CAMK1 at 10 uM
[15] = biological target: Serine/threonine-protein kinase pim-1 (Homo sapiens) (UniProt P11309); test: Inhibition of human PIM1 at 10 uM
[16] = biological target: Dual specificity mitogen-activated protein kinase kinase 1 (Oryctolagus cuniculus) (UniProt P29678); test: Inhibition of rabbit MKK1 at 10 uM
[17] = Inhibition of PKA at 10 uM
[18] = biological target: Serine/threonine-protein kinase Chk2 (Homo sapiens) (UniProt O96017); test: Inhibition of CHK2 at 10 uM
[19] = biological target: Cyclin-dependent kinase 2 (Homo sapiens) (UniProt P24941); test: Inhibition of CDK2/cyclin A at 10 uM
[20] = biological target: Mitogen-activated protein kinase 3 (Homo sapiens) (UniProt P27361); test: Inhibition of human ERK1 at 10 uM
[21] = biological target: Maternal embryonic leucine zipper kinase (Homo sapiens) (UniProt Q14680); test: Inhibition of human MELK at 10 uM
[22] = tested on: Serine/threonine-protein kinase Sgk1 (Homo sapiens), O00141 [S422D]; test: Inhibition of SGK1 S422D mutant at 10 uM
[23] = biological target: Aurora kinase C (Homo sapiens) (UniProt Q9UQB9); test: Inhibition of human aurora C at 10 uM
[24] = biological target: Serine/threonine-protein kinase 3 (Homo sapiens) (UniProt Q13188); test: Inhibition of human MST2 at 10 uM
[25] = biological target: Homeodomain-interacting protein kinase 2 (Homo sapiens) (UniProt Q9H2X6); test: Inhibition of human HIPK2 at 10 uM
[26] = biological target: Dual specificity tyrosine-phosphorylation-regulated kinase 3 (Homo sapiens) (UniProt O43781); test: Inhibition of human DYRK3 at 10 uM
[27] = biological target: Mitogen-activated protein kinase 14 (Homo sapiens) (UniProt Q16539); test: Inhibition of SAPK2a at 10 uM
[28] = biological target: Tyrosine-protein kinase SYK (Homo sapiens) (UniProt P43405); test: Inhibition of human SYK at 10 uM
[29] = biological target: Proto-oncogene tyrosine-protein kinase Src (Homo sapiens, UniProt P12931); test: Inhibition of SRC up to 100 uM

Measured: inhibition

MAP kinase-activated protein kinase 2 (Homo sapiens), sequence (P49137 whole entry, looked up): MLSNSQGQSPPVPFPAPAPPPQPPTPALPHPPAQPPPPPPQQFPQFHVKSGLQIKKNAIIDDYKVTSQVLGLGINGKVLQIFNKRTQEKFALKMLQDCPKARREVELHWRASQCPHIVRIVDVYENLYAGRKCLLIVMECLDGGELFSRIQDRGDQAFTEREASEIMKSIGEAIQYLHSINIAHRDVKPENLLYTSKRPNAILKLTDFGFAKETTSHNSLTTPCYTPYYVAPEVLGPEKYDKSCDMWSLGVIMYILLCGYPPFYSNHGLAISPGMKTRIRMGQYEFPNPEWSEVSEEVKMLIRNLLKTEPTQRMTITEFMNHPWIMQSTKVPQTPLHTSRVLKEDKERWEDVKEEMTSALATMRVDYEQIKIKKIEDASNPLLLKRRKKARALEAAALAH
Tyrosine-protein kinase CSK (Homo sapiens), sequence (P41240 2-450 limits assumed): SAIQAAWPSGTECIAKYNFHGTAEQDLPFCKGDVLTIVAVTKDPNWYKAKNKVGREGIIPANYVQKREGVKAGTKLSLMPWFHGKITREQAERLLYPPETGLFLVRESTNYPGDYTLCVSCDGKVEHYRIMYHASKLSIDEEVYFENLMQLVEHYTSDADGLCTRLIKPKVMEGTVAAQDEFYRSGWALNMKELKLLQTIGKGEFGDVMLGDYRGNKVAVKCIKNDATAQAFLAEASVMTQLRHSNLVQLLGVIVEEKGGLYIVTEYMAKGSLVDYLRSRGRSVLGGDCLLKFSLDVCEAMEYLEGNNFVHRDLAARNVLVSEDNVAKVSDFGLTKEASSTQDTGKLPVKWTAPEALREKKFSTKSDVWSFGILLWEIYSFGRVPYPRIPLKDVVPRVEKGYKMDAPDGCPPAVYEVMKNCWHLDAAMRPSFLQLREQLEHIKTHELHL
Serine/threonine-protein kinase Sgk1 (Homo sapiens), O00141 [S422D], sequence (O00141 whole entry S422D): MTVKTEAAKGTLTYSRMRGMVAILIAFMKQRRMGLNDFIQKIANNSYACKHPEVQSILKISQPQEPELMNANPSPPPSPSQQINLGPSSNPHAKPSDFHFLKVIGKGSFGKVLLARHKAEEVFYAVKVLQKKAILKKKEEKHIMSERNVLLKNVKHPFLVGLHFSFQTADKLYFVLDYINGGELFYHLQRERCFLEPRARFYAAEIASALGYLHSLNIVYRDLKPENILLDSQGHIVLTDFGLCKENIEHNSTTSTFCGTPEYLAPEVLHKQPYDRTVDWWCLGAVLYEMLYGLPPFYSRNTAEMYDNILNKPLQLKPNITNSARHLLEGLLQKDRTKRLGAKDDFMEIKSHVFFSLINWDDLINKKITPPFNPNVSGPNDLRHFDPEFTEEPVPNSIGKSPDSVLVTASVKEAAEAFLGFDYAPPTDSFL
Calcium/calmodulin-dependent protein kinase type 1 (Homo sapiens), sequence (Q14012 whole entry, looked up): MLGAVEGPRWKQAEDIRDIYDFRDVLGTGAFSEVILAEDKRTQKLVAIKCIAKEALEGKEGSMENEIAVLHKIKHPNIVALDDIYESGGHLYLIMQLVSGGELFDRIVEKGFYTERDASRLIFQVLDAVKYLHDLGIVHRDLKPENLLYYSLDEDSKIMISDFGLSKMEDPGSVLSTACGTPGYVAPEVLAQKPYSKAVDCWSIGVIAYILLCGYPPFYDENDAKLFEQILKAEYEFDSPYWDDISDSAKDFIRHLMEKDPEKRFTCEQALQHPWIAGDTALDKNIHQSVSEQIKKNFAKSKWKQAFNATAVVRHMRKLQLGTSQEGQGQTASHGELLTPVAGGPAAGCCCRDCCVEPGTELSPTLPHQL
Serine/threonine-protein kinase TBK1 (Homo sapiens), sequence (Q9UHD2 whole entry): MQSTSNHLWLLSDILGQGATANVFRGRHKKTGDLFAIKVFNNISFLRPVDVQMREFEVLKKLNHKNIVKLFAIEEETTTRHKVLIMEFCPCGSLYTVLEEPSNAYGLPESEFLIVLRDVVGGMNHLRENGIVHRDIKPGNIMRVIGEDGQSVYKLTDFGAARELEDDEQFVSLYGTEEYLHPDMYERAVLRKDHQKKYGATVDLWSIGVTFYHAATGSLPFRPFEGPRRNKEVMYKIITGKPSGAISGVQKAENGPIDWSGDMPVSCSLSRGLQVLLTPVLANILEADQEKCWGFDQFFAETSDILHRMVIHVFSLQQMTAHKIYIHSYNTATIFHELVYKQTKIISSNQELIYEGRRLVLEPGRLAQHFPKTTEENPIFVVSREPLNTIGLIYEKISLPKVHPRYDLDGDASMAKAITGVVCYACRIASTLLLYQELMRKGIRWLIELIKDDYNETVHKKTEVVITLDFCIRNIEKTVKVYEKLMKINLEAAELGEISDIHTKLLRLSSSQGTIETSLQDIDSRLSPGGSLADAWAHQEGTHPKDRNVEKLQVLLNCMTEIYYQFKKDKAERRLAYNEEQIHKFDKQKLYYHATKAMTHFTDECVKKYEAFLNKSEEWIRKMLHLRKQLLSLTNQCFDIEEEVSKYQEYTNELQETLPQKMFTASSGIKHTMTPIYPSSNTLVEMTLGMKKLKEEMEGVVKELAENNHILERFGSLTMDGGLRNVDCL
Serine/threonine-protein kinase PAK 4 (Homo sapiens), sequence (O96013 whole entry, looked up): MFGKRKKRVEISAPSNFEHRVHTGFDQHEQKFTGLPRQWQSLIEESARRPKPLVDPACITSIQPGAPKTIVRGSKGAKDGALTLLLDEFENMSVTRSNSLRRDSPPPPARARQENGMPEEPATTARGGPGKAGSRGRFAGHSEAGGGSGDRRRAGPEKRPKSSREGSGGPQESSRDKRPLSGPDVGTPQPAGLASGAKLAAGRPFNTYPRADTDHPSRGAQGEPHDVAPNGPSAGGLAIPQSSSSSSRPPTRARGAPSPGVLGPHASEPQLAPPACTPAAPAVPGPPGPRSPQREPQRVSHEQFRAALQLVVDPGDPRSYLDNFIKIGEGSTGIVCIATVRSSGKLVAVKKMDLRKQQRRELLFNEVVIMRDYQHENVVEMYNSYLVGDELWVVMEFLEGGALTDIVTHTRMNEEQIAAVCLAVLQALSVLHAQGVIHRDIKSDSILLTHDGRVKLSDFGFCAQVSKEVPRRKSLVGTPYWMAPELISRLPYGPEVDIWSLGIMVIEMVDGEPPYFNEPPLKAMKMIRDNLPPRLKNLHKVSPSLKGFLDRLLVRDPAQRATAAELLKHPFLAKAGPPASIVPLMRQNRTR
Dual specificity tyrosine-phosphorylation-regulated kinase 3 (Homo sapiens), sequence (O43781 whole entry): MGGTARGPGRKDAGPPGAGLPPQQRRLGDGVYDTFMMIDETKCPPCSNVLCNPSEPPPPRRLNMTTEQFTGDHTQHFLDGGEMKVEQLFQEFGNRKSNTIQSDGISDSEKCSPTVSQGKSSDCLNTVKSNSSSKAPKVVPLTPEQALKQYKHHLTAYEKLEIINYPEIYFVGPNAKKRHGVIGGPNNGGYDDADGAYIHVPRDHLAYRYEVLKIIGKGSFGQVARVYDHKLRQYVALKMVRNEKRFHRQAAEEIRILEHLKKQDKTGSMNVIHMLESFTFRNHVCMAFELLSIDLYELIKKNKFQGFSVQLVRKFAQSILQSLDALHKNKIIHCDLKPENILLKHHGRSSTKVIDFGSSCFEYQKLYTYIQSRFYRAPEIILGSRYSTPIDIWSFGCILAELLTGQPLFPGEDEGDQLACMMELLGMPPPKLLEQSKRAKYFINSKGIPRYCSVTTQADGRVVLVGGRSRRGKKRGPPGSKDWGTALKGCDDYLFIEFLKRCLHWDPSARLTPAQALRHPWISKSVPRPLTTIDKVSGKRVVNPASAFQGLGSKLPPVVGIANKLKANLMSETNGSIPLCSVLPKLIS
Protein kinase C zeta type (Homo sapiens), sequence (Q05513 whole entry): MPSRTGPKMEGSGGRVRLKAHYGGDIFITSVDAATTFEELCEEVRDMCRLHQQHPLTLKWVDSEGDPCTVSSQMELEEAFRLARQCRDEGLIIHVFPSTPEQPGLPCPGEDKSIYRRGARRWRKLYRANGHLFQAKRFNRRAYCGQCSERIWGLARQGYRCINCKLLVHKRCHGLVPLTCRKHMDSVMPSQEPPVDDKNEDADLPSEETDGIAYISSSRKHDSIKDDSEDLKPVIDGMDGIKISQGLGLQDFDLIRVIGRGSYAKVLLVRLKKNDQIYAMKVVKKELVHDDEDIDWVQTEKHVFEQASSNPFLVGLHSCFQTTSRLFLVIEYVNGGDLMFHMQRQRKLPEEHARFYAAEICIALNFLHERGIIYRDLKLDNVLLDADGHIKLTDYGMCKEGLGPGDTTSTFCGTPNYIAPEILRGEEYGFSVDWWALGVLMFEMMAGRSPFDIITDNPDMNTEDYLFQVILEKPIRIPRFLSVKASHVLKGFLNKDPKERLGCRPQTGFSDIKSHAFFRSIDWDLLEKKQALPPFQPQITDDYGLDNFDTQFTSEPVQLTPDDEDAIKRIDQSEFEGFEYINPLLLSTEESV
Ribosomal protein S6 kinase alpha-5 (Homo sapiens), sequence (O75582 whole entry, looked up): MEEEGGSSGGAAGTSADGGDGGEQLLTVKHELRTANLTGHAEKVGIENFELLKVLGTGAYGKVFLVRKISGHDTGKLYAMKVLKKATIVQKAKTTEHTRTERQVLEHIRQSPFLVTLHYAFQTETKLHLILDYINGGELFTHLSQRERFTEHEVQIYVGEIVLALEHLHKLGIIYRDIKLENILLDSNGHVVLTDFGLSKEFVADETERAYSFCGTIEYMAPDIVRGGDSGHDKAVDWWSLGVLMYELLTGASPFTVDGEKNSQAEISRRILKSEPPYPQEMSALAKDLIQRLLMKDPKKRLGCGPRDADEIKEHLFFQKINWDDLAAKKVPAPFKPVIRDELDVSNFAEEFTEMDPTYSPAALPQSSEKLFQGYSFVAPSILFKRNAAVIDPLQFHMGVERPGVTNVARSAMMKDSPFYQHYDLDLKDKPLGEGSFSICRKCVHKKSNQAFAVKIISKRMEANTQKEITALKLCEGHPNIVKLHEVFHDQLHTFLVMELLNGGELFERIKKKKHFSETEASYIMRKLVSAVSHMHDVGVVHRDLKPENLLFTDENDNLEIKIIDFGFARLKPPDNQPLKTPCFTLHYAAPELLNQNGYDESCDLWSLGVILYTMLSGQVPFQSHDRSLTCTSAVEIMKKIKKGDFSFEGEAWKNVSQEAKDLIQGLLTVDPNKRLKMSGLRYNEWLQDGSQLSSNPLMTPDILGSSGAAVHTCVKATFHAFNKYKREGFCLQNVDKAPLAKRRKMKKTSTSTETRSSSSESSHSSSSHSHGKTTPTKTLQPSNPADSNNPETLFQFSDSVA

Nc1ncnc2ncn(CC(=O)c3c[nH]c4ccccc34)c12
inactive: [1] | [2] | [3] | [4] | [5] | Aurora kinase B | [6] | [7] | [8] | [9] | [10] | [11] | [12] | [13] | [14] | [15] | [16] | [17] | [18] | [19] | [20] | [21] | [22] | [23] | [24] | [25] | [26] | [27] | [28]

Nc1ncnc2c1ncn2CC(=O)c1ccccc1
inactive: [29]
